For 32 molecules, IC50 results are on record in patent publication US7495104B2, “Quinoline or quinazoline derivatives inhibiting auto-phosphorylation of fibroblast growth factor receptors” (Kirin Beer Kabushiki Kaisha, priority 2001, dated 2009).

Each structure is given as a SMILES string. Where only a bound is given, the exact number is not on record here.

In this assay the target is Bek (Homo sapiens, UniProt P21802). The experiment in a line: Inhibitory activity against Bek-autophosphorylation using ELISA method in OCUM-2MD3 cells. Format: cell-based. As to conditions: 1 hr with compound, read-out: IC50 (concentration necessary for inhibiting 50% of Bek-phosphorylation). A digest of the protocol: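 OCUM-2MD3 human scirrhous gastric cancer cells in 0.1% FCS were exposed to compound for 1 hr at 37° C, then lysed. Phospho-tyrosine proteins were captured with anti-phosphotyrosine antibody, probed with anti-Bek antibody and peroxidase read-out (A450). Positive control (1000 nM) set 0%, untreated 100%; IC50 from multi-level dilutions.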
Sequence of Bek (P21802 431-767 limits assumed): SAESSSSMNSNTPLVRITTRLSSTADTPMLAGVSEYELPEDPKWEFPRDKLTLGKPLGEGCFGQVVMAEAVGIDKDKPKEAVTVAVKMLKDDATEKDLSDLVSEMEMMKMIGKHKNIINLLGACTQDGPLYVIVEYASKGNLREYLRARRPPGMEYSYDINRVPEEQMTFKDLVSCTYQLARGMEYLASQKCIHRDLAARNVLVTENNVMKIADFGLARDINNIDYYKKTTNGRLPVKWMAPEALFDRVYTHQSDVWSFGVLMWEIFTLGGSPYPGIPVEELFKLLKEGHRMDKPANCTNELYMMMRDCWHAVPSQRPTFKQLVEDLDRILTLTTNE
On to `COc1cc2nccc(Oc3ccc(Nc4ccsc4)cc3)c2cc1OC` [Compound 73, [4-(6,7-Dimethoxyquinolin-4-yloxy)phenyl]thiophen-3-ylamine], for which the IC50 worked out at 3510 nM.
Next, `COc1cc2c(Oc3ccc(Nc4ccc(C(C)(C)C)cc4)c(Cl)c3)ccnc2cc1OCCCN1CCC(CO)CC1` [Compound 277, [1-(3-{4-[4-(4-Tert-butyl-phenylamino)-3-chloro-phenoxy]-6-methoxy-quinolin-7-yloxy}-propyl)-piperidin-4-yl]-methanol]: 617 nM.
As to `COc1cc2c(Oc3ccc(NC(=O)NCCC(C)(C)C)c(Cl)c3)ccnc2cc1OCC1CCN(CCO)CC1` [Compound 170, 1-(2-Chloro-4-{7-[1-(2-hydroxy-ethyl)-piperidin-4-ylmethoxy]-6-methoxy-quinolin-4-yloxy}-phenyl)-3-(3,3-dimethyl-butyl)-urea], the IC50 is 24.4 nM.
`COc1cc2c(Oc3ccc(NC(=O)NCCC(C)(C)C)cc3)ccnc2cc1OCCCN1CCC(N2CCCCC2)CC1` [Compound 248, 1-{4-[7-(3-[1,4′]Bipiperidinyl-1′-yl-propoxy)-6-methoxy-quinolin-4-yloxy]-phenyl}-3-(3,3-dimethyl-butyl)-urea]: the IC50 turned out to be 12.6 nM.
Take `COc1cc2nccc(Oc3ccc(NC(=O)NCCC(C)(C)C)cc3)c2cc1OCC(O)CN(C)C` (centres unmarked) [Compound 226, 1-{4-[6-(3-Dimethylamino-2-hydroxy-propoxy)-7-methoxy-quinolin-4-yloxy]-phenyl}-3-(3,3-dimethyl-butyl)-urea]: the IC50 was determined as 27.9 nM.
Then `COc1cc2c(Oc3ccc(Nc4ccc(C(C)(C)C)cc4)cc3)ccnc2cc1OCCNC(C)CO` (centres unmarked) [Compound 353, 2-(2-{4-[4-(4-Tert-butyl-phenylamino)-phenoxy]-6-methoxy-quinolin-7-yloxy}-ethylamino)-propan-1-ol], with 374 nM.
As for `COc1cc2c(Oc3ccc(NC(=O)NCCC(C)(C)C)c(Cl)c3)ccnc2cc1OCCCN1CCC(CO)CC1` [Compound 266, 1-(2-Chloro-4-{7-[3-(4-hydroxymethyl-piperidin-1-yl)-propoxy]-6-methoxy-quinolin-4-yloxy}-phenyl)-3-(3,3-dimethyl-butyl)-urea], the IC50 amounted to 11 nM.
As for `COc1cc2nccc(Oc3ccc(NC(=O)NCCC(C)(C)CC(C)(C)C)c(F)c3)c2cc1OC` [Compound 149, 1-[4-(6,7-Dimethoxy-quinolin-4-yloxy)-2-fluoro-phenyl]-3-(3,3,5,5-tetramethyl-hexyl)-urea], the IC50 worked out at 218 nM.
Take `COc1cc2c(Oc3ccc(Nc4ccc(C(C)(C)C)cc4)cc3)ccnc2cc1OCC(O)CN1CC(C)CC(C)C1` (centres unmarked) [Compound 254, 1-{4-[4-(4-Tert-butyl-phenylamino)-phenoxy]-6-methoxy-quinolin-7-yloxy}-3-(3,5-dimethyl-piperidin-1-yl)-propan-2-ol]: the IC50 stood at 94.2 nM.
As to `COc1cc2c(Oc3ccc(NC(=O)NCCC(C)(C)C)cc3)ccnc2cc1OCCN1CCC(CCO)CC1` [Compound 219, 1-(3,3-Dimethyl-butyl)-3-[4-(7-{2-[4-(2-hydroxy-ethyl)-piperidin-1-yl]-ethoxy}-6-methoxy-quinolin-4-yloxy)-phenyl]-urea], the IC50 was below 10 nM.
Next, `CCN(CC)CCOc1cc2nccc(Oc3ccc(NC(=O)NCCC(C)(C)C)c(Cl)c3)c2cc1OC` [Compound 167, 1-{2-Chloro-4-[7-(2-diethylamino-ethoxy)-6-methoxy-quinolin-4-yloxy]-phenyl}-3-(3,3-dimethyl-butyl)-urea]: 95 nM; `COc1cc2nccc(Oc3ccc(NC(=O)NC(C)(C)CC(C)(C)C)cc3)c2cc1OC` [Compound 143, 1-[4-(6,7-Dimethoxy-quinolin-4-yloxy)-phenyl]-3-(1,1,3,3-tetramethyl-butyl)-urea]: 192 nM; `COc1cc2c(Oc3ccc(NC(=O)NCCC(C)(C)C)cc3Cl)ccnc2cc1OCCCN1CCC(CO)CC1` [Compound 339, 1-(3-Chloro-4-{7-[3-(4-hydroxymethyl-piperidin-1-yl)-propoxy]-6-methoxy-quinolin-4-yloxy}-phenyl)-3-(3,3-dimethyl-butyl)-urea]: 16.4 nM.
Next, `COc1cc2c(Oc3ccc(NC(=O)NCCC(C)(C)C)cc3)ccnc2cc1OCCN(C)CCO` [Compound 328, 1-(3,3-Dimethyl-butyl)-3-[4-(7-{2-[(2-hydroxy-ethyl)-methyl-amino]-ethoxy}-6-methoxy-quinolin-4-yloxy)-phenyl]-urea]: 37 nM.
For the molecule `COc1cc2c(Oc3ccc(Nc4ccc(C(C)(C)C)cc4)cc3)ccnc2cc1OCC(O)CN(C)C` (centres unmarked) [Compound 67, 1-{4-[4-(4-Tert-butylphenylamino)phenoxy]-6-methoxyquinolin-7-yloxy}-3-dimethylaminopropan-2-ol], the IC50 came to 189 nM.
For `COc1cc2c(Oc3ccc(NC(=O)NCCC(C)(C)C)cc3Cl)ccnc2cc1OCCCN1CCC(O)CC1` [Compound 338, 1-(3-Chloro-4-{7-[3-(4-hydroxy-piperidin-1-yl)-propoxy]-6-methoxy-quinolin-4-yloxy}-phenyl)-3-(3,3-dimethyl-butyl)-urea], the IC50 came to 16.6 nM.
As for `COc1cc2c(Oc3ccc(Nc4ccc(C(C)(C)C)cc4)cc3)ccnc2cc1OCC(O)CN1CCOCC1` (centres unmarked) [Compound 59, 1-{4-[4-(4-Tert-butyl-phenylamino)phenoxy]-6-methoxyquinolin-7-yloxy}-3-morpholin-4-ylpropan-2-ol], the IC50 came out at 143 nM.
On to `COc1cc2c(Oc3ccc(Nc4ccc(C(C)(C)C)cc4)cc3Cl)ccnc2cc1OCCCN1CCC(CCO)CC1` [Compound 314, 2-[1-(3-{4-[4-(4-Tert-butyl-phenylamino)-2-chloro-phenoxy]-6-methoxy-quinolin-7-yloxy}-propyl)-piperidin-4-yl]-ethanol], for which the IC50 is 277 nM.
As to `COc1cc2nccc(Oc3ccc(C(OC(C)=O)c4ccc(C(C)(C)C)cc4)cc3)c2cc1OC` (centres unmarked) [Compound 31, (4-Tert-butylphenyl)-[4-(6,7-dimethoxyquinolin-4-yloxy)phenyl]methyl acetate], the IC50 was 1010 nM.
Next, `COc1cc2c(Oc3ccc(NC(=O)NCCC(C)(C)C)c(F)c3)ccnc2cc1OCC(O)CN1CCOCC1` (centres unmarked) [Compound 209, 1-(3,3-Dimethyl-butyl)-3-{2-fluoro-4-[7-(2-hydroxy-3-morpholin-4-yl-propoxy)-6-methoxy-quinolin-4-yloxy]-phenyl}-urea]: below 10 nM.
Regarding `CCN(CCO)CCCOc1cc2nccc(Oc3ccc(NC(=O)NCCC(C)(C)C)c(Cl)c3)c2cc1OC` [Compound 345, 1-[2-Chloro-4-(7-{3-[ethyl-(2-hydroxy-ethyl)-amino]-propoxy}-6-methoxy-quinolin-4-yloxy)-phenyl]-3-(3,3-dimethyl-butyl)-urea], the IC50 was determined as 9.8 nM.
With `COc1cc2c(Oc3ccc(Nc4ccc(C(C)(C)C)cc4)cc3)ccnc2cc1OCCCN1CCC(CO)CC1` [Compound 217, [1-(3-{4-[4-(4-Tert-butyl-phenylamino)-phenoxy]-6-methoxy-quinolin-7-yloxy}-propyl)-piperidin-4-yl]-methanol], the IC50 was determined as 40.9 nM.
Turning to `COc1cc2nccc(Oc3cc(C)c(Nc4ccc(C(C)(C)C)cc4)cc3C)c2cc1OC` [Compound 17, (4-Tert-butylphenyl)-[4-(6,7-dimethoxyquinolin-4-yloxy)-2,5-dimethylphenyl]amine], the IC50 was 5610 nM.
Regarding `COc1cc2c(Oc3ccc(Nc4ccc(C(C)(C)C)cc4)cc3)ccnc2cc1OCCCN1CCCCCC1` [Compound 54, {4-[7-(3-Azepan-1-ylpropoxy)-6-methoxyquinolin-4-yloxyl]-phenyl}-(4-tert-butylphenyl)amine], the IC50 was determined as 324 nM.
Next, `COc1cc2c(Oc3ccc(NC(=O)NCCC(C)(C)C)cc3F)ccnc2cc1OCCN1CCCCC1` [Compound 129, 1-(3,3-Dimethyl-butyl)-3-{3-fluoro-4-[6-methoxy-7-(2-piperidin-1-yl-ethoxy)-quinolin-4-yloxy]-phenyl}-urea]: 48.1 nM; `C=Cc1ccc(Nc2ccc(Oc3ccnc4cc(OC)c(OC)cc34)cc2)cc1` [Compound 2, [4-(6,7-Dimethoxyquinolin-4-yloxy)phenyl]-(4-vinylphenyl)amine]: 7940 nM; `COc1cc2c(Oc3ccc(NC(=O)NCCC(C)(C)C)c(Cl)c3)ccnc2cc1OCc1ccccc1` [Compound 163, 1-[4-(7-Benzyloxy-6-methoxy-quinolin-4-yloxy)-2-chloro-phenyl]-3-(3,3-dimethyl-butyl)-urea]: 370 nM.
On to `COc1cc2nccc(Oc3ccc(Nc4ccc(C(C)(C)C)cc4)c(C)c3)c2cc1OC` [Compound 13, (4-Tert-butylphenyl)-[4-(6,7-dimethoxyquinolin-4-yloxy)-2-methylphenyl]amine], for which the IC50 is 279 nM.
Take `CCN(CC)CC(O)COc1cc2nccc(Oc3ccc(NC(=O)NCCC(C)(C)C)c(Cl)c3)c2cc1OC` (centres unmarked) [Compound 191, 1-{2-Chloro-4-[7-(3-diethylamino-2-hydroxy-propoxy)-6-methoxy-quinolin-4-yloxy]-phenyl}-3-(3,3-dimethyl-butyl)-urea]: the IC50 was found to be 10.6 nM.
Turning to `COc1cc2c(Oc3ccc(Nc4ccc(C(C)(C)C)cc4)c(F)c3)ccnc2cc1OCCN1CCC(CCO)CC1` [Compound 305, 2-[1-(2-{4-[4-(4-Tert-butyl-phenylamino)-3-fluoro-phenoxy]-6-methoxy-quinolin-7-yloxy}-ethyl)-piperidin-4-yl]-ethanol], the IC50 came out at 359 nM.
Take `COc1cc2nccc(Oc3ccc(NC(=O)NCCC(C)(C)C)cc3F)c2cc1OC` [Compound 102, 1-[4-(6,7-Dimethoxy-quinolin-4-yloxy)-3-fluorophenyl]-3-(3,3-dimethyl-butyl)-urea]: the IC50 was 27.8 nM.
Regarding `COc1cc2c(Oc3ccc(Nc4ccc(C(C)(C)C)cc4)cc3Cl)ccnc2cc1OCCN(CCO)CCO` [Compound 346, 2-[(2-{4-[4-(4-Tert-butyl-phenylamino)-2-chloro-phenoxy]-6-methoxy-quinolin-7-yloxy}-ethyl)-(2-hydroxy-ethyl)-amino]-ethanol], the IC50 stood at 294 nM.
